Assay results reported in patent US9925174B2, “Administration form for the oral application of 3-[(2-{[4-(hexyloxycarbonyl-amino-imino-methyl)-phenylamino]-methyl}-1-methyl-1 H-benzimidazol acid ethyl ester and the salts thereof” (Boehringer Ingelheim International GmbH, priority 2002, dated 2018).

Assay: Solubility in water as a function of pH
Format: physicochemical

CCCCCCOC(=O)NC(=N)c1ccc(NCc2nc3cc(C(=O)N(CCC(=O)OCC)c4ccccn4)ccc3n2C)cc1 [compound of formula I, ethyl 3-[(2-{[4-(hexyloxycarbonylamino-imino-methyl)-phenylamino]-methyl}-1-methyl-1H-benzimidazole-5-carbonyl)-pyridin-2-yl-amino]-propionate]
solubility in water at low pH levels (low pH): dissolves relatively well | solubility in water at pH levels above 5 (pH above 5, definition of the European Pharmacopoeia): virtually insoluble
